# Read-outs that look alike come from different tables or passages of the source.
# What was measured:
# [1] = system: A/Perth/16/2009 (H3N2); assay: Antiviral activity (drug efficacy evaluation by concentration) against A/Perth/16/2009 (H3N2); assay type: cell-based, A type influenza virus; conditions: Influenza A virus
# [2] = in vitro
# [3] = system: A/California/07/2009 (H1N1); assay: Antiviral activity (drug efficacy evaluation by concentration) against A/California/07/2009 (H1N1); assay type: cell-based, A type influenza virus; conditions: Influenza A virus
# [4] = H3N2, A/Perth/16/2009 (H3N2), read-out: EC50 A/Perth/16/2009 (H3N2)
# [5] = CC50 B/Florida/04/2006, cytotoxicity in the B/Florida/04/2006 assay
# [6] = H1N1, A/California/07/2009 (H1N1), read-out: EC50 A/California/07/2009 (H1N1)
# [7] = CC50, third EC50/CC50 column pair (c7), beside the EC50 of c6
Compound,melting point [°C],"EC50 [1, 4] [µM]","CC50 [2, 5] [µM]","EC50 [3, 6] [µM]","CC50 ([2]; CC50, beside the EC50 of c2) [µM]","CC50 ([2]; CC50, beside the EC50 of c4) [µM]","CC50 [2, 7] [µM]","EC50 ([1]; H3N2, read-out: EC50) [µM]","EC50 ([3]; H1N1, read-out: EC50) [µM]"
"c1ccc(-c2ccccc2CSc2nnc(-c3cnn(-c4ccccc4)c3)o2)cc1 [Compound 36, 2-(([1,1′-biphenyl]-2-ylmethyl)thio)-5-(1-phenyl-1H-pyrazol-4-yl)-1,3,4-oxadiazole]",114.2,> 50,> 50,–,–,–,–,–,–
"Cc1cccc(C)c1CSc1nnc(Cn2nc(C)c(Br)c2C)o1 [Compound 40, 2-((4-bromo-3,5-dimethyl-1H-pyrazol-1-yl)methyl)-5-((2,6-dimethylbenzyl)thio)-1,3,4-oxadiazole]",106.3,–,> 50,> 50,–,–,–,–,–
"c1ccc(-c2nnc(SCc3ccccc3-c3ccccc3)o2)cc1 [Compound 43, 2-(([1,1′-biphenyl]-2-ylmethyl)thio)-5-phenyl-1,3,4-oxadiazole]",–,> 50,> 50,> 50,–,–,–,–,–
"O=C(c1cccc(-c2ccccc2)c1)c1nnc(Cc2ccc(Br)cc2)o1 [Compound 69, [1,1′-biphenyl]-3-yl(5-(4-bromobenzyl)-1,3,4-oxadiazol-2-yl)methanone]",166.4,49.3,> 50,> 50,–,–,–,–,–
"OC(c1cccc(-c2ccccc2)c1)c1nnc(Cc2ccc(Br)cc2)o1 (centres unmarked) [Compound 70, [1,1′-biphenyl]-3-yl(5-(4-bromobenzyl)-1,3,4-oxadiazol-2-yl)methanol]",137.6,37.5,> 50,–,–,–,–,–,–
"O=C(Nc1ccc(Br)cc1)c1nnc(SCc2ccccc2-c2ccccc2)o1 [Compound 72, 5-(([1,1′-biphenyl]-2-ylmethyl)thio)-N-(4-bromophenyl)-1,3,4-oxadiazole-2-carboxamide]",–,23.5,25,0.73,–,–,–,–,–
"Cc1cccc(C)c1Nc1nnc(C(O)c2ccccc2)o1 (centres unmarked) [Compound 77, (5-((2,6-dimethylphenyl)amino)-1,3,4-oxadiazol-2-yl)(phenyl)methanol]",179,–,> 50,–,–,–,–,–,–
"Cc1cccc(C)c1Nc1nnc(C(=O)c2ccc(F)c(Cl)c2)o1 [Compound 78, (3-chloro-4-fluorophenyl)(5-((2,6-dimethylphenyl)amino)-1,3,4-oxadiazol-2-yl)methanone]",252.8,–,> 50,–,–,–,–,–,–
"CC(C)c1ccccc1/C=C/c1nnc(Cc2ccc(OC(F)(F)F)cc2)o1 [Compound 81, (E)-2-(2-isopropylstyryl)-5-(4-(trifluoromethoxy)benzyl)-1,3,4-oxadiazole]",91.6,–,–,–,> 50,> 50,> 50,–,–
"Fc1cc(Nc2nnc(/C=C/c3ccccc3Br)o2)ccc1Br [Compound 88, (E)-N-(4-bromo-3-fluorophenyl)-5-(2-bromostyryl)-1,3,4-oxadiazol-2-amine]",225.1,–,–,–,> 50,> 50,> 50,> 50,> 50
"Brc1ccc(Nc2nnc(/C=C/c3cccc4ncccc34)o2)cc1 [Compound 121, (E)-N-(4-bromophenyl)-5-(2-(quinolin-5-yl)vinyl)-1,3,4-oxadiazol-2-amine]",246.5,–,–,–,> 50,> 50,> 50,–,–
"Brc1ccc(Nc2nnc(/C=C/c3ccccc3-c3ccccc3)o2)cc1 [Compound 124, (E)-5-(2-([1,1′-biphenyl]-2-yl)vinyl)-N-(4-bromophenyl)-1,3,4-oxadiazol-2-amine]",239.3,–,–,–,> 50,> 50,> 50,> 50,–
"Brc1ccc(Nc2nnc(/C=C/c3ccccc3Oc3ccccc3)o2)cc1 [Compound 125, (E)-N-(4-bromophenyl)-5-(2-phenoxystyryl)-1,3,4-oxadiazol-2-amine]",–,–,–,–,> 50,> 50,> 50,> 50,36.7
"Brc1ccc(Cc2nnc(/C=C/c3ccccc3Br)o2)cc1 [Compound 128, (E)-2-(4-bromobenzyl)-5-(2-bromostyryl)-1,3,4-oxadiazole]",156.1,–,–,–,> 50,> 50,> 50,–,–
"Cc1ccccc1CC1(c2nnc(Cc3ccc(Br)cc3)o2)CC1 [Compound 129, 2-(4-bromobenzyl)-5-(1-(2-methylbenzyl)cyclopropyl)-1,3,4-oxadiazole]",72.2,–,–,–,> 50,> 50,> 50,6.13,–
"Cc1cccc(C)c1/C=C/c1nnc(Cc2ccc(Br)cc2)o1 [Compound 134, 2-(4-bromobenzyl)-5-(2,6-dimethylstyryl)-1,3,4-oxadiazole]",–,–,–,–,> 50,> 50,> 50,> 50,> 50

Compound,melting point [°C],"EC50 [1, 4] [µM]","CC50 [2, 5] [µM]","EC50 [3, 6] [µM]","CC50 ([2]; CC50, beside the EC50 of c2) [µM]","CC50 ([2]; CC50, beside the EC50 of c4) [µM]","CC50 [2, 7] [µM]","EC50 ([1]; H3N2, read-out: EC50) [µM]","EC50 ([3]; H1N1, read-out: EC50) [µM]"
"CC(=Cc1ccccc1C)c1nnc(Cc2ccc(Br)cc2)o1 [Compound 138, 2-(4-bromobenzyl)-5-(1-(o-tolyl)prop-1-en-2-yl)-1,3,4-oxadiazole]",–,–,–,–,> 50,> 50,> 50,–,0.161
"Clc1ccc(/C=C/c2nnc(Cc3ccc(Br)cc3)o2)cc1Cl [Compound 149, 2-(4-bromobenzyl)-5-(3,4-dichlorostyryl)-1,3,4-oxadiazole]",164.5,–,–,–,> 50,> 50,> 50,–,–
"Cc1cccc(/C=C/c2nnc(Cc3ccc(Br)cc3)o2)c1C [Compound 150, 2-(4-bromobenzyl)-5-(2,3-dimethylstyryl)-1,3,4-oxadiazole]",126.9,–,–,–,> 50,> 50,> 50,> 50,–
"Clc1ccc(-c2ccccc2/C=C/c2nnc(Cc3ccc(Br)cc3)o2)cc1 [Compound 153, 2-(4-bromobenzyl)-5-(2-(4′-chloro-[1,1′-biphenyl]-2-yl)vinyl)-1,3,4-oxadiazole]",123.7,–,–,–,> 50,> 50,> 50,–,–
"Brc1ccc(Cc2nnc(-c3cc4ccccc4o3)o2)cc1 [Compound 156, 2-(benzofuran-2-yl)-5-(4-bromobenzyl)-1,3,4-oxadiazole]",145.7,–,–,–,> 50,> 50,> 50,–,–
"Clc1ccc2oc(-c3nnc(Cc4ccc(Br)cc4)o3)cc2c1 [Compound 157, 2-(4-bromobenzyl)-5-(5-chlorobenzofuran-2-yl)-1,3,4-oxadiazole]",149.7,–,–,–,> 50,> 50,> 50,–,–
"Clc1ccccc1/C=C/c1nnc(Cc2ccc(Br)cc2)o1 [Compound 166, 2-(4-bromobenzyl)-5-(2-chlorostyryl)-1,3,4-oxadiazole]",136.3,–,–,–,> 50,> 50,> 50,–,–
"Clc1cccc(/C=C/c2nnc(Cc3ccc(Br)cc3)o2)c1 [Compound 167, 2-(4-bromobenzyl)-5-(3-chlorostyryl)-1,3,4-oxadiazole]",105.1,–,–,–,> 50,> 50,> 50,–,–
"Clc1cccc(Cl)c1/C=C/c1nnc(Cc2ccc(Br)cc2)o1 [Compound 168, 2-(4-bromobenzyl)-5-(2,6-dichlorostyryl)-1,3,4-oxadiazole]",139.3,–,–,–,> 50,> 50,> 50,–,–
"Cc1cc(Cc2nnc(/C=C/c3ccccc3C(C)C)o2)ccc1Br [Compound 172, 2-(4-bromo-3-methylbenzyl)-5-(2-isopropylstyryl)-1,3,4-oxadiazole]",117.1,–,–,–,> 50,> 50,> 50,–,–
"CC(C)c1ccccc1/C=C/c1nc(Cc2ccc(Br)cc2)no1 [Compound 175, (E)-3-(4-bromobenzyl)-5-(2-isopropylstyryl)-1,2,4-oxadiazole]",81.5,–,–,–,> 50,> 50,> 50,–,–
"Cc1cc(Cc2nnc(/C=C/c3ccc(F)cc3Cl)o2)ccc1Br [Compound 176, (E)-2-(4-bromo-3-methylbenzyl)-5-(2-chloro-4-fluorostyryl)-1,3,4-oxadiazole]",119.9,–,–,–,6.53,> 50,> 50,–,–
"Fc1ccc(/C=C/c2nnc(Cc3cccc(Cl)c3)o2)c(Cl)c1 [Compound 179, (E)-2-(2-chloro-4-fluorostyryl)-5-(3-chlorobenzyl)-1,3,4-oxadiazole]",104,–,–,–,> 50,> 50,> 50,–,0.632
"Fc1ccc(/C=C/c2nnc(Cc3cccc(Br)c3)o2)c(F)c1 [Compound 189, 2-(3-bromobenzyl)-5-(2,4-difluorostyryl)-1,3,4-oxadiazole]",87.7,–,–,–,> 50,> 50,> 50,–,–
"Fc1cc(Cl)ccc1/C=C/c1nnc(Cc2cccc(Br)c2)o1 [Compound 190, 2-(3-bromobenzyl)-5-(4-chloro-2-fluorostyryl)-1,3,4-oxadiazole]",107.2,–,–,–,–,40.1,–,–,–
"Fc1ccc(/C=C/c2nnc(Cc3ccc(F)c(Br)c3)o2)c(Cl)c1 [Compound 207, 2-(3-bromo-4-fluorobenzyl)-5-(2-chloro-4-fluorostyryl)-1,3,4-oxadiazole]",123,–,–,–,> 50,> 50,> 50,–,–

# Reference: US11149033B2, “Heteroaryl compound, enantiomer, diastereomer or pharmaceutically acceptable salt thereof, and antiviral composition containing same as active ingredient” (priority 2016, dated 2021)
